Measurements published in publication PMC9322052, “Synthesis and Biological Activity Screening of Newly Synthesized Trimethoxyphenyl-Based Analogues as Potential Anticancer Agents” (Molecules, 2022).

Assays:
β-tubulin = assay: Tubulin polymerization inhibition (beta-tubulin ELISA in HepG2 cells); assay type: cell-based, human; conditions: HepG2 cells, each compound at its IC50 concentration (9 1.38, 10 2.52, 11 3.21, podo 2.08 μM), ELISA
Description: The selected candidates were tested at a concentration equal to their IC50 concentration dose value. […] See Section 3.3.2 in Supplementary Material. […] page 18: 3.3. Biological studies 3.3.1. Cytotoxic activity evaluation To measure the cytotoxic activity of the synthesized derivatives 2a-11 in hepatocel- lular carcinoma (HepG2) cell line (ATCC Cat No. HB-8065) as well as normal human liver cell line HL-7702 (ATCC Cat. No. 77402), cell viability assay was assessed using MTT assay method. Cells at density of 1 x 104 were seeded in a 96-well plate at 37 °C for 24 h under 5% CO2. After incubation, the cells were treated with different concentrations of the test compounds 2a-11 and incubated for 24 h, then 20 μl of MTT solution at 5 mg/mL was […] Dimethyl sulphoxide (DMSO) in volume of 100 μl was added to each well to dissolve the purple formazan that had formed. The color […] of the formazan product, which represents the growth condition of the cells, is quan- […] by using an ELISA plate reader (EXL 800, USA) at 570 nm absorbance. The experi- mental conditions were carried out with at least three replicates, and the experiments were repeated at least three times. 3.3.2. Tubulin inhibitions Assay […] according to the manufacturer's instructions using # abcam Human Beta-tubulin […] ELISA Kit ab245722. 3.3.3. Cell cycle analysis of compound 9 Cell cycle analysis in HepG2 cells was investigated using fluorescent Annexin V- FITC/ PI detection kit (BioVision EZCellTM Cell Cycle Analysis Kit Catalog #K920) by flow cytometry assay. […] twice in PBS. After that, the cells were incubated at 37 °C and 5% CO2. […] Apoptosis assay for compound 9 Apoptosis in HepG2 cells was investigated using fluorescent Annexin V-FITC/ PI de- tection kit (BioVision Annexin V-FITC Apoptosis Detection Kit, Catalog #: K101) by flow cy- tometry assay. […] The samples were immediately analyzed using FACS Calibur flow cytometer (Becton and Dickinson, Heidelberg, Germany). 3.3.5. Measurement of mitochondrial membrane potential (MMP) for compound 9 MMP was measured by FACS analysis using abcam ab113852TMRE Mitochondrial Membrane Potential Assay Kit with DiOC2(3) staining using MitoProbeTM DiOC2(3) Assay Kit for Flow Cytometry (M34150). After treatment with compound 9 at its IC50 concentra- tion, cells were stained with DiOC2(3) dye for 30 min in the incubator, then harvested and washed with PBS. […] The samples were immediately analyzed using cell Quest software. […] Effect on p53, Bax and Bcl-2 p53, Bax and Bcl2 enzyme activities in HepG2 cells were detected in the presence of com- pound 9 at its IC50 concentration (μM). The levels of the tumor suppressor gene p53, apoptotic markers Bax as well as the anti-apoptotic marker Bcl-2 were assessed using p53 ELISA kit, Human Bax ELISA kit and Bcl-2 Elisa kit. […]

HepG2 cells = assay: Annexin V-FITC/PI dual staining apoptosis assay; assay type: cell-based, human
Description: The extent of apoptosis induced by compound 9 in HepG2 cells was quantified by the FACS analysis. Cells were harvested after 48 h and analyzed for apoptosis percentage by flow cytometry.
[…] analysis in HepG2 cells was carried out by FACS analysis according to the manufacturer’s directions. See Section 3.3.4 in Supplementary Material.
Figure 4 Compound 9 induces apoptosis in HepG2 cells. (A) HepG2 cells were treated with 1.38 μM of compound 9 for 48 h. Cell apoptosis was quantized by Annexin V-FITC/PI dual staining assay using image-based cytometry. (B) The quantification of HepG2 cell apoptosis.
3.3.1. Cytotoxic activity evaluation
To measure the cytotoxic activity of the synthesized derivatives 2a-11 in hepatocel-lular carcinoma (HepG2) cell line (ATCC Cat No. HB-8065) as well as normal human liver cell line HL-7702 (ATCC Cat. No. 77402), cell viability assay was assessed using MTT assay method. Cells at density of 1 x 104 were seeded in a 96-well plate at 37 °C for 24 h under 5% CO2. […] The color inten-sity of the formazan product, which represents the growth condition of the cells, is quan-tified by using an ELISA plate reader (EXL 800, USA) at 570 nm absorbance. […]
Compounds 9, 10 and 11 were evaluated for their tubulin inhibitory activity levels according to the manufacturer’s instructions using # abcam Human Beta-tubulin simplestep […]
Cell cycle analysis in HepG2 cells was investigated using fluorescent Annexin V-FITC/ PI detection kit (BioVision EZCellTM Cell Cycle Analysis Kit Catalog #K920) by flow cytometry assay. […] The samples were immediately analyzed using Facs Calibur flow cytometer (Becton and Dickinson, Heidelberg, Germany). […]
Apoptosis in HepG2 cells was investigated using fluorescent Annexin V-FITC/ PI de-tection kit (BioVision Annexin V-FITC Apoptosis Detection Kit, Catalog #: K101) by flow cy-tometry assay. […] The samples were immediately analyzed using FACS Calibur flow cytometer (Becton and Dickinson, Heidelberg, Germany).
3.3.5. […] The samples were immediately analyzed using cell […]

[1] = HepG2, IC50 concentration, 48 h

## COc1ccc(C2=N/C(=C\c3cc(OC)c(OC)c(OC)c3)C(=O)NN2c2ccccc2)cc1OC [Compound 9, (Z)-3-(3,4-Dimethoxyphenyl)-2-Phenyl-5-(3,4,5-Trimethoxybenzylidene)-1,2-Dihydro-1,2,4-Triazin-6(5H)-one]
β-tubulin
  β-tubulin polymerization inhibition percentage: 86.73%
HepG2 cells; HepG2
  increase in Annexin-V-positive cells compared with untreated control: ~18 fold
HepG2 cells; [1]
  increase in percentage of early apoptosis compared with untreated control: 16.63 fold
  increase in percentage of late apoptosis compared with untreated control: 60.11 fold
